# According to patent publication US20230028441A1, “NOVEL HETEROARYL-TRIAZOLE COMPOUNDS AS PESTICIDES” (Bayer Aktiengesellschaft, priority 2019, published 2023):
# What was measured:
# Type in all cases: in vivo
# [1] = tested on: cattle tick larvae (Rhipicephalus microplus), strain Parkhurst, resistant against synthetic pyrethroids; assay: Rhipicephalus (Boophilus) microplus in-vitro contact test, larval cattle tick; settings: 5 μg/cm^2 (=500 g/ha), after 48 hours, read-out: efficacy (larvae dead or moribund)
# Description: (§1) 9 mg compound is solved in 1 mL acetone and diluted with acetone to the desired concentration. 250 μL of the test solution is filled in 25 mL glass test tubes and homogeneously distributed on the inner walls by rotation and tilting on a shaking device (2 h at 30 rpm). With a compound concentration of 900 ppm, an inner surface of 44.7 cm^2 and a homogeneous distribution, a dose of 5 μg/cm^2 is achieved.
# After the solvent has evaporated, each test tube is filled with 20-50 cattle tick larvae (Rhipicephalus microplus), closed with a perforated lid and incubated in a horizontal position at 85% relative humidity and 27° C. in an incubator. After 48 hours efficacy is determined. The larvae are patted on the ground of the tubes and negative geotactic behaviour is recorded.
# An efficacy of 100% means all larvae are dead or moribund; 0% means no larvae are dead or moribund.
# [2] = tested on: larvae of the banded cucumber beetle (Diabrotica balteata); assay: Diabrotica balteata spray test; settings: 168 h, 100 g/ha (=32 μg/well), after 7 days, wheat seeds, read-out: efficacy (seedlings grown up)
# Description: (§2) Solvent: 78.0 parts by weight of acetone • • 1.5 parts by weight of dimethylformamide
# (§3) Emulsifier: alkylarylpolyglycol ether
# (§4) To produce a suitable preparation of active compound, 1 part by weight of active compound is mixed with the stated amount of solvent, and the concentrate is diluted with water, containing an emulsifier concentration of 1000 ppm, to the desired concentration. Further test concentrations are prepared by dilution with emulsifier containing water.
# Soaked wheat seeds (Triticum aestivum) are placed in a multiple well plate filled with agar and some water and are incubated for 1 day to germinate (5 seeds per well). The germinated wheat seeds are sprayed with a test solution containing the desired concentration of the active ingredient. Afterwards each unit is infected with 10-20 larvae of the banded cucumber beetle (Diabrotica balteata).
# After 7 days efficacy in % is determined. 100% means all the seedlings have grown up like in the untreated, uninfected control; 0% means none of the seedlings have grown.
# [3] = tested on: adult engorged female ticks (Rhipicephalus microplus); assay: Rhipicephalus (Boophilus) microplus injection test; settings: 168 h, egg deposition after 7 days, read-out: efficacy (infertile eggs); for pest or weed control at 0.004 mg: 4 μg/animal; for pest or weed control at 0.02 mg: 20 μg/animal
# Description: (§5) Solvent: dimethyl sulfoxide
# To produce a suitable preparation of active compound, 10 mg of active compound are dissolved in 0.5 mL solvent, and the concentrate is diluted with solvent to the desired concentration.
# Five adult engorged female ticks (Rhipicephalus microplus) are injected with 1 μL compound solution into the abdomen. The ticks are transferred into replica plates and incubated in a climate chamber.
# After 7 days egg deposition of fertile eggs is monitored. Eggs where fertility is not visible are stored in a climate chamber till hatching after about 42 days. An efficacy of 100% means all eggs are infertile; 0% means all eggs are fertile.
# [4] = tested on: adult unfed cat fleas (Ctenocephalides felis); assay: Ctenocephalides felis oral test; settings: 48 h, 100 ppm in cattle blood, after 2 days
# Description: as §5
# To produce a suitable preparation of active compound, 10 mg of active compound are dissolved in 0.5 mL solvent, and the concentrate is diluted with cattle blood to the desired concentration.
# Approximately 20 adult unfed cat fleas (Ctenocephalides felis) are placed in flea chambers. The blood chamber, sealed with parafilm on the bottom, are filled with cattle blood supplied with compound solution and placed on the gauze covered top of the flea chamber, so that the fleas are able to suck the blood. The blood chamber is heated to 37° C. whereas the flea chamber is kept at room temperature.
# After 2 days mortality in % is determined. 100% means all the fleas have been killed; 0% means none of the fleas have been killed.
# [5] = tested on: fall armyworm larvae (Spodoptera frugiperda); assay: Spodoptera frugiperda spray test (maize leaf sections); settings: 168 h
# Description: Solvent: 78.0 parts by weight acetone • 1.5 parts by weight dimethylformamide
# as §3
# as §4, with “solvents” for “solvent,”, “and” for “and the concentrate”
# Maize (Zea mays) leaf sections are sprayed with a preparation of the active ingredient of the desired concentration. Once dry, the leaf sections are infested with fall armyworm larvae (Spodoptera frugiperda).
# After 7 days mortality in % is determined. 100% means all caterpillars have been killed and 0% means none of the caterpillars have been killed.
# [6] = tested on: adult brown dog ticks (Rhipicephalus sanguineus); assay: Rhipicephalus sanguineus in-vitro contact test with adult brown dog ticks; settings: 5 μg/cm^2 (=500 g/ha), after 48 hours, read-out: efficacy (ticks dead or moribund)
# Description: as §1
# After the solvent has evaporated, each test tube is filled with 5-10 adult brown dog ticks (Rhipicephalus sanguineus), closed with a perforated lid and incubated in a lying position at room temperature and relative humidity. After 48 hours efficacy is determined. The ticks are patted on the ground of the tubes and are incubated on a heating plate at 45-50° C. for at most 5 minutes. Immotile or uncoordinated moving ticks, which are not able to escape the heat by climbing upwards, are marked as dead or moribund.
# An efficacy of 100% means all ticks are dead or moribund; 0% means no ticks are dead or moribund.
# [7] = tested on: larvae of the southern green stink bug (Nezara viridula); assay: Nezara viridula spray test; settings: in Hordeum vulgare, 96 h
# Description: as §2, §3, §4
# Barley plants (Hordeum vulgare) infested with larvae of the southern green stink bug (Nezara viridula) are sprayed with a test solution containing the desired concentration of the active ingredient.
# After 4 days mortality in % is determined. 100% means all the stink bugs have been killed; 0% means none of the stink bugs have been killed.
SMILES,pest or weed control at 5 µg/cm2 [1] [%],pest or weed control at 0.004 mg [3] [%],pest or weed control at 0.02 mg [3] [%],mortality at 100 ppm [4] [%],also measured
CC(NC(=O)c1cc(OC(F)(F)F)cc(C2CC2)c1)c1nc(N)nn1-c1ccc(C#N)cn1 (stereo not shown) [I-122],100,,,,"pest or weed control at 32 µg/disc, 100 g/ha [2]: 100%"
CC(NC(=O)c1cc(Cl)nc(C(F)(F)F)c1)c1nc(-c2cnccn2)nn1-c1ccc(Cl)cn1 (stereo not shown) [I-037],,100,100,90,
CC(NC(=O)c1cncc(C(F)(F)F)c1)c1nc(-c2cnccn2)nn1-c1ccc(Cl)cn1 (stereo not shown) [I-038],,100,100,100,
CC(NC(=O)c1cc(Cl)cc(C(F)(F)F)c1)c1nc(C#N)nn1-c1ccc(C#N)cn1 (stereo not shown) [I-081],100,100,,90,"pest or weed control at 32 µg/disc, 100 g/ha [2]: 100%"
CC(NC(=O)c1cc(Br)cc(C(F)(F)F)c1)c1nc(-c2cnccn2)nn1-c1ncccn1 (stereo not shown) [I-048],,100,,100,mortality at 500 g/ha [5]: 83%
CC(NC(=O)c1cc(Cl)cc(C(F)(F)F)c1)c1nc(SC(F)(C(F)(F)F)C(F)(F)F)nn1-c1ccc(Cl)cn1 (stereo not shown) [I-070],100,100,100,,
"CC(NC(=O)c1cc(C(F)(F)F)cc(C(F)(F)F)c1)c1nc(Cc2ccccc2)nn1-c1ncccn1 (racemic) [I-082, N-[1-(5-benzyl-2-pyrimidin-2-yl-1,2,4-triazol-3-yl)ethyl]-3,5-bis(trifluoromethyl)benzamide]",,100,,100,"pest or weed control at 32 µg/disc, 100 g/ha [2]: 80%"
CC(NC(=O)c1cc(Cl)cc(C(F)(F)F)c1)c1nc(-c2ccc(Cl)nc2)nn1-c1ccc(Cl)cn1 (stereo not shown) [I-032],,,,,"pest or weed control at 5 µg/cm2, 500 g/ha [6]: 80%"
CC(NC(=O)c1cc(Br)cc(C(F)(F)F)c1)c1nc(-c2cnccn2)nn1-c1ccc(Cl)cn1 (stereo not shown) [I-036],100,,100,100,mortality at 100 g/ha [5]: 100%; mortality at 500 g/ha [5]: 100%
CC(NC(=O)c1cc(Cl)cc(S(C)(=O)=O)c1)c1nc(NC(=O)C2CC2(F)F)nn1-c1ncccn1 (stereo not shown) [I-021],,80,,100,mortality at 100 g/ha [7]: 90%
CC(NC(=O)c1cc(Cl)cc(S(C)(=O)=O)c1)c1nc(SC(F)(C(F)(F)F)C(F)(F)F)nn1-c1ccc(Cl)cn1 (stereo not shown) [I-069],100,100,100,,
CC(NC(=O)c1cc(C(F)(F)F)cc(C(F)(F)F)c1)c1nc(N2CCOCC2)nn1-c1ccc(C#N)cn1 (stereo not shown) [I-158],100,,,,"pest or weed control at 32 µg/disc, 100 g/ha [2]: 100%; mortality at 100 g/ha [5]: 100%"
CC(NC(=O)c1cc(C(F)(F)F)cc(C(F)(F)F)c1)c1nc(NC(=O)OC(C)(C)C)nn1-c1ccc(C(=O)N2CCOCC2)cn1 (stereo not shown) [I-113],90,,,,"pest or weed control at 32 µg/disc, 100 g/ha [2]: 100%"
CC(NC(=O)c1cc(Cl)cc(Cl)c1)c1nc(CS(C)(=O)=O)nn1-c1ccc(Cl)cn1 (stereo not shown) [I-028],,100,100,100,
CC(NC(=O)c1cc(Cl)cc(C(F)(F)F)c1)c1nc(-c2cnccn2)nn1-c1ncccn1 (stereo not shown) [I-047],,100,100,100,mortality at 500 g/ha [5]: 83%
CC(NC(=O)c1cncc(C(F)(F)F)c1)c1nc(-c2ccc(Cl)nc2)nn1-c1ncccn1 (stereo not shown) [I-042],,,100,90,
CC(NC(=O)c1cc(OC(F)(F)F)cc(C2CC2)c1)c1nc(N2CCOCC2)nn1-c1ccc(C#N)cn1 (stereo not shown) [I-161],100,,,,"pest or weed control at 32 µg/disc, 100 g/ha [2]: 100%"
CC(NC(=O)c1cc(Cl)nc(Cl)c1)c1nc(-c2cnccn2)nn1-c1ncccn1 (stereo not shown) [I-049],,80,100,100,
CC(NC(=O)c1cncc(C(F)(F)F)c1)c1nc(-c2cnccn2)nn1-c1ncccn1 (stereo not shown) [I-050],,100,100,100,
CC(=O)Nc1nc(C(C)NC(=O)c2cc(OC(F)(F)F)cc(C3CC3)c2)n(-c2ccc(C#N)cn2)n1 (stereo not shown) [I-124],100,,,,"pest or weed control at 32 µg/disc, 100 g/ha [2]: 100%; mortality at 100 g/ha [5]: 100%"
CC(NC(=O)c1cc(Cl)cc(Cl)c1)c1nc(-c2cnccn2)nn1-c1ncccn1 (stereo not shown) [I-046],,100,100,100,mortality at 500 g/ha [5]: 100%
CC(NC(=O)c1cc(Cl)cc(C(F)(F)F)c1)c1nc(NC(=O)C2(Cl)CC2)nn1-c1ccc(Cl)cn1 (stereo not shown) [I-014],100,100,100,100,mortality at 100 g/ha [5]: 100%; mortality at 500 g/ha [5]: 100%
CC(NC(=O)c1cncc(C(F)(F)F)c1)c1nc(CS(C)(=O)=O)nn1-c1ccc(Cl)cn1 (stereo not shown) [I-030],,100,100,100,
CC(NC(=O)c1cc(Cl)nc(C(F)(F)F)c1)c1nc(-c2cnccn2)nn1-c1ncccn1 (stereo not shown) [I-044],,100,100,100,
CC(NC(=O)c1cc(Cl)cc(S(C)(=O)=O)c1)c1nc(-c2cnccn2)nn1-c1ccc(Cl)cn1 (stereo not shown) [I-039],,100,80,100,
CC(NC(=O)c1cc(Cl)nc(C(F)(F)F)c1)c1nc(-c2ncccn2)nn1-c1ncccn1 (stereo not shown) [I-056],,80,100,100,
CC(NC(=O)c1cc(Cl)nc(Cl)c1)c1nc(-c2cnccn2)nn1-c1ccc(Cl)cn1 (stereo not shown) [I-035],100,,100,100,
CC(NC(=O)c1cc(Cl)cc(C(F)(F)F)c1)c1nc(-c2cnccn2)nn1-c1ccc(Cl)cn1 (stereo not shown) [I-040],100,100,100,100,
CC(NC(=O)c1cc(Cl)cc(S(C)(=O)=O)c1)c1nc(N)nn1-c1ncccn1 (stereo not shown) [I-008],,100,,100,
CC(NC(=O)c1cc(Cl)cc(C(F)(F)F)c1)c1nc(Cc2ccccc2)nn1-c1ncccn1 (stereo not shown) [I-083],,,,90,"pest or weed control at 32 µg/disc, 100 g/ha [2]: 100%"
